Test results reported in patent US6552070B2, “Health food useful for preventing liver and biliary dysfunctions containing an alkanoyl L-carnitine and Silybum marianum extract” (Sigma-Tau HealthScience S.p.A., priority 2000, dated 2003).

Columns and labels:
[1] = test system: galactosamine-induced liver intoxication; assay: Protection against hepatotoxic effects induced by galactosamine in the rat; format: in vivo
Protocol: In these tests the method adopted was that described by Reuter (Reuter W., Trends in the Therapy of Liver Diseases Proceeding, Ed. A. Bertelli, pp. 121, 1974, Karger Basel 1975).
Rats weighing approximately 250 g received daily oral administrations for two days consecutively of 200 mg/kg of isovaleryl L-carnitine or 200 mg/kg of propionyl L-carnitine or 100 mg/kg of silymarin or a combination of these compounds at the same doses. After 24 hours, the same rats were administered 400 mg/kg i.p. of galactosamine. After a further 24 hours, blood samples taken from the animals were used to determine both glutamic-oxalacetic […] (GOT) and the bilirubin present in plasma, according to the method described by Keppler (Keppler D., Exp. Mol. Pathol, 9, 279, 1968).

rat liver cells = assay: Protection against CCl4 toxicity on isolated liver cell cultures; conditions: CCl4 100 mg L^−1; for Concentration of AlaAT in supernatant of liver cells exposed to CCl4 / Concentration of AspAT in supernatant of liver cells exposed to CCl4: I 100 mg L^−1, P 100 mg L^−1, S 50 mg L^−1; for Inhibition of toxic and lipoperoxidative effects caused by CCl4 on liver cell cultures (in words): summary of Tables 1 and 2
[2] = rat plasma 24 hours after galactosamine 400 mg/kg i.p., oral pretreatment two days, alkanoyl L-carnitine 200 mg/kg, silymarin 100 mg/kg

| SMILES | Protective effect against galactosamine-induced liver intoxication (in words) ([1]; rat) | Bilirubin [1, 2] | GOT [1, 2] | GluDH ([1]; rat, 24 hours after galactosamine 400 mg/kg i.p., oral pretreatment two days, alkanoyl L-carnitine 200 mg/kg, silymarin 100 mg/kg) | Concentration of AlaAT in supernatant of liver cells exposed to CCl4 (rat liver cells; 4 hours) [nmol/min/L] | Concentration of AspAT in supernatant of liver cells exposed to CCl4 (rat liver cells; 4 hours) [nmol/min/L] | Concentration of AlaAT in supernatant of liver cells exposed to CCl4 (rat liver cells; 8 hours) [nmol/min/L] | Concentration of AspAT in supernatant of liver cells exposed to CCl4 (rat liver cells; 8 hours) [nmol/min/L] | Concentration of AlaAT in supernatant of liver cells exposed to CCl4 (rat liver cells; 16 hours) [nmol/min/L] | Concentration of AspAT in supernatant of liver cells exposed to CCl4 (rat liver cells; 16 hours) [nmol/min/L] | Inhibition of toxic and lipoperoxidative effects caused by CCl4 on liver cell cultures (in words) (rat liver cells) | Enzyme activity (GOT) and bilirubin after galactosamine (in words) ([1]; rat, oral pretreatment, galactosamine 400 mg/kg i.p.) |
| --- | --- | --- | --- | --- | --- | --- | --- | --- | --- | --- | --- | --- |
| CC(C)CC(=O)O[C@H](CC(=O)[O-])C[N+](C)(C)C [Isovaleryl L-carnitine, isovaleryl L-carnitine] | protective activity | 0.15 ± 0.04 | 215 ± 30.5 | 64 ± 6.8 | 19.4 ± 2.4 | 6.9 ± 1.1 | 16.7 ± 3.1 | 6.2 ± 0.9 | 15.6 ± 2.7 | 5.5 ± 1.2 | partly inhibiting | – |
| CCC(=O)O[C@H](CC(=O)[O-])C[N+](C)(C)C [Propionyl L-carnitine, propionyl L-carnitine] | – | – | – | – | 22.3 ± 4.1 | 7.5 ± 0.9 | 18.4 ± 2.3 | 5.5 ± 1.2 | 16.6 ± 1.9 | 5.2 ± 1.4 | partly inhibiting | reduced |
